Source: US5710150A, “Benzazepine derivative, pharmaceutical composition thereof, and intermediate thereof” (Yamanouchi Pharmaceutical Co., Ltd., priority 1993, dated 1998)
Where a name gives a salt, the structure may show the parent alone. Read-outs that look alike come from different tables or passages of the source.

Assays:
V1 = V1 antagonism in conscious rats (oral administration), AVP-induced diastolic blood pressure increase; format: in vivo, male Wister rats; conditions: 1 mg/kg oral, 30 minutes to 6 hours after administration, AVP 30 mU/kg i.v.
[1] = biological target: arginine vasopressin V2 receptor (Oryctolagus cuniculus, UniProt G1TA00); assay: V2 receptor binding assay ([3H]-Arg-vasopressin, rabbit renal medulla membrane); conditions: for antagonism on V2 receptor (in words): compared with OPC-31260 and OPC-21268; for Binding activity on arginine vasopressin V2 receptor (pKi): rabbit renal medulla membrane, [3H]-Arg-vasopressin 2 nM
[2] = biological target: T1, arginine vasopressin V1 receptor (Rattus norvegicus, UniProt P30560); assay: V1 receptor binding assay ([3H]-Arg-vasopressin, rat liver membrane); conditions: for antagonism on V1 receptor (in words): compared with OPC-31260 and OPC-21268; for V1 selectivity (in words): V1 versus V2 receptor binding; for V1 receptor antagonism compared with OPC-21268 (in words): versus OPC-21268
T1 construct: A rat liver membrane sample was prepared; from tissue; host or cells: rat liver membranes
Method: (1) V1 receptor binding assay
A rat liver membrane sample was prepared in accordance with the method of Nakamura et al. (J. Biol. Chem., 258, 9283 (1983)), and [^3 H]-Arg-vasopressin (2 nM, specific activity=75.8 Ci/mmol), 70 μg of the membrane sample and each drug to be tested (10^-8 to 10^-4 M) were incubated at 30° C. for 30 minutes in 250 μl of 100 mM Tris-HCl buffer (pH=8.0) containing 5 mM of magnesium chloride, 1 mM of ethylenediaminetetraacetic acid (EDTA) and 0.1% of bovine serum albumin (BSA). Thereafter, the incubation solution was sucked off using a cell harvester and free ligand and excess buffer were removed by passing the reaction mixture through a glass filter (GF/B), thereby trapping receptor-bound labeled ligand on the glass filter. The glass filter was taken out, thoroughly dried and then mixed with a liquid scintillation cocktail, and the amount of the membrane-bound [^3 H]-vasopressin was measured using a liquid scintillation counter to calculate the inhibition ratio by the following formula. [formula] C1 : amount of [^3 H]-vasopressin bound to the membrane in the coexistence of known amount of each drug to be tested and [^3 H]-vasopressin
C0 : amount of [^3 H]-vasopressin bound to the membrane when the drug to be tested was not added
B1 : amount of [^3 H]-vasopressin bound to the membrane in the presence of excess vasopressin (10^-6 M)
[formula] [L]: concentration of radioactive ligand KD: dissociation constant calculated from Scatchard plot
Negative logarithm of the thus calculated Ki value was used as pKi value.

[3] = rat liver membrane, [3H]-Arg-vasopressin 2 nM, 30° C., 30 minutes, pH 8.0, read-out: Binding activity on arginine vasopressin V1 receptor (pKi) (converted)

Sequence of arginine vasopressin V2 receptor (G1TA00 78-446): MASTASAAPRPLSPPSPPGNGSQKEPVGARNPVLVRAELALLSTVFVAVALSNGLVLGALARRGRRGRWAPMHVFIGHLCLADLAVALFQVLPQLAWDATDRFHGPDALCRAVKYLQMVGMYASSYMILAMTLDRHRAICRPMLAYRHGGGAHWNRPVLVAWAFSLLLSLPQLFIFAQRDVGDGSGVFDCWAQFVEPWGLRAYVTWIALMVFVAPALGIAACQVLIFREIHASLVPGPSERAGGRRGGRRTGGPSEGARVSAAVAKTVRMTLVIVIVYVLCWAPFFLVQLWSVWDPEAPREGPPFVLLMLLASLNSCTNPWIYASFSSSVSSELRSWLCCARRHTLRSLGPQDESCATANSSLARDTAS
T1 sequence (P30560 whole entry): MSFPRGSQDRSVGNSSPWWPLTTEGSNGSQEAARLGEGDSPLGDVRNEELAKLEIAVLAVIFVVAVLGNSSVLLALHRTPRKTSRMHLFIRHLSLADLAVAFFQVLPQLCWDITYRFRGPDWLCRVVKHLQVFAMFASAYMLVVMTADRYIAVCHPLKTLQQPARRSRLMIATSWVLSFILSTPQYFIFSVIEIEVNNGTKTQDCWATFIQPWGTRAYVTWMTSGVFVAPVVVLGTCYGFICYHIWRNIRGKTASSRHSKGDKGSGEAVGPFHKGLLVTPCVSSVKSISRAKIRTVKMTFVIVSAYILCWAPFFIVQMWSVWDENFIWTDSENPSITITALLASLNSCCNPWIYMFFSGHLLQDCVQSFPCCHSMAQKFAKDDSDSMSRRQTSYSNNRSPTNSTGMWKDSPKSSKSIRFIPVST

| Structure (SMILES) | Pressure increment by AVP (before compound = 100%) (V1) | antagonism on V2 receptor (in words) [1] | Binding activity on arginine vasopressin V2 receptor (pKi) [1] | antagonism on V1 receptor (in words) [2] | Ki [2, 3] | V1 selectivity (in words) [2] | V1 receptor antagonism compared with OPC-21268 (in words) [2] | Ki [2] |
| --- | --- | --- | --- | --- | --- | --- | --- | --- |
| CN(C)C1CCN(C(=O)/C=C2/c3ccccc3N(C(=O)c3ccc(NC(=O)c4ccccc4-c4ccccc4)cc3)CCC2(F)F)CC1.Cl [Example 13, (Z)-4'-[[4,4-difluoro-5-[[(4-dimethylaminopiperidino)carbonyl]methylene]-2,3,4,5-tetrahydro-1H-1-benzazepin-1-yl]carbonyl]-2-phenylbenzanilide hydrochloride] | ≤ 50% | excellent antagonisms on both V1 and V2 receptors | 9.58 | excellent antagonisms on both V1 and V2 receptors | 79.4 pM | – | – | – |
| CN(C)CCN(C)C(=O)/C=C1/c2ccccc2N(C(=O)c2ccc(NC(=O)c3ccccc3-c3ccccc3)cc2)CCC1(F)F [Example 15, (Z)-4'-[4,4-difluoro-5-[[N-(2-dimethylaminoethyl)-N-methylcarbonylmethylene]-2,3,4,5-tetrahydro-1H-1-benzazepin-1-yl]carbonyl]-2-phenylbenzanilide hydrochloride] | – | excellent antagonisms on both V1 and V2 receptors | 9.13 | excellent antagonisms on both V1 and V2 receptors | 162 pM | – | – | – |
| O=C(/C=C1/c2ccccc2N(C(=O)c2ccc(NC(=O)c3ccccc3-c3ccccc3)cc2)CCC1(F)F)NCc1ccccn1 [Example 14, (Z)-4'-[[4,4-difluoro-5-[N-(2-pyridylmethyl)carbonylmethylene]-2,3,4,5-tetrahydro-1H-1-benzazepin-1-yl]carbonyl]-2-phenylbenzanilide hydrochloride] | – | – | 9.39 | – | 1230 pM | – | – | – |
| CN(C)C1CCN(C(=O)/C=C2/c3ccccc3N(C(=O)c3ccc(NC(=O)c4cccc5ccccc45)cc3)CCC2(F)F)CC1 [Example 109, (Z)-N-[4'-[[4,4-difluoro-5-[[(4-dimethylaminopiperidino)carbonyl]methylene]-2,3,4,5-tetrahydro-1H-1-benzazepin-1-yl]carbonyl]phenylnaphthalene-1-carboxyamide hydrochloride] | – | – | 8.06 | – | 3980 pM | – | – | – |
| CCc1nccn1-c1ccccc1C(=O)Nc1ccc(C(=O)N2CCC(F)(F)/C(=C\C(=O)NC3CC3)c3ccccc32)cc1 [Example 105, (Z)-4'-[[5-[(N-cyclopropylcarbamoyl)methylene]-4,4-difluoro-2,3,4,5-tetrahydro-1H-1-benzazepin-1-yl]carbonyl]-2-(2-ethyl-1H-imidazol-1-yl) benzanilide] | – | – | 6.81 | – | 339 pM | excellent in V1 selectivity | markedly stronger V1 receptor antagonism than that of OPC-21268 | – |
| Cc1ccoc1C(=O)Nc1ccc(C(=O)N2CCC(F)(F)/C(=C\C(=O)N3CCC(N(C)C)CC3)c3ccccc32)cc1 [Example 113, (Z)-N-[4-[[4,4-difluoro-5-[[(4-dimethylaminopiperidino)carbonyl]methylene]-2,3,4,5-tetrahydro-1H-1-benzazepin-1-yl]carbonyl]phenyl]-3-methyl-2-furancarboxyamide hydrochloride] | – | – | 7.50 | – | – | excellent in V1 selectivity | markedly stronger V1 receptor antagonism than that of OPC-21268 | 263 pM |
| CCc1nccn1-c1ccccc1C(=O)Nc1ccc(C(=O)N2CCC(F)(F)/C(=C\C(N)=O)c3ccccc32)cc1 [Example 103, (Z)-4'-[(5-carbamoylmethylene-4,4-difluoro-2,3,4,5-tetrahydro-1H-1-benzazepin-1-yl]carbonyl]-2-(2-ethyl-1H-imidazol-1-yl)benzanilide] | – | – | 6.35 | – | 2000 pM | excellent in V1 selectivity | markedly stronger V1 receptor antagonism than that of OPC-21268 | – |
| CC(C)NC(=O)/C=C1/c2ccccc2N(C(=O)c2ccc(NC(=O)c3ccccc3-c3ccccc3)cc2)CCC1(F)F [Example 125, (Z)-4'-[[4,4-difluoro-5-(N-isopropylcarbamoylmethylene)-2,3,4,5-tetrahydro-1H-1-benzazepin-1-yl]carbonyl]-2-phenylbenzanilide] | – | – | 8.08 | – | 282 pM | – | – | – |
| CN(C)C1CCN(C(=O)/C=C2/c3ccccc3N(C(=O)c3ccc(NC(=O)c4cccn4C)cc3)CCC2(F)F)CC1 [Example 110, (Z)-N-[4-[[4,4-difluoro-5-[[(4-dimethylaminopiperidino)carbonyl]methylene]-2,3,4,5-tetrahydro-1H-1-benzazepin-1-yl]carbonyl]phenyl]-1-methylpyrrole-2-carboxyamide hydrochloride] | – | – | 7.75 | – | – | – | – | 398 pM |
| Cl.O=C(Nc1ccc(C(=O)N2CCC(F)(F)/C(=C\C(=O)N3CCNCC3)c3ccccc32)cc1)c1ccccc1-c1ccccc1 [Example 12, (Z)-4'-[[4,4-difluoro-5-[(1piperazinylcarbonyl)methylene]-2,3,4,5-tetrahydro-1H-1-benzazepin-1-yl]carbonyl]-2-phenylbenzanilide hydrochloride] | – | excellent antagonisms on both V1 and V2 receptors | 9.71 | excellent antagonisms on both V1 and V2 receptors | 219 pM | – | – | – |
| CN(C)C1CCN(C(=O)/C=C2/c3ccccc3N(C(=O)c3ccc(NC(=O)c4cccc(Cl)c4)cc3)CCC2(F)F)CC1.Cl [Example 96, (Z)-3-chloro-4'-[[4,4-difluoro-5-[[(4-dimethylaminopiperidino)carbonyl]methylene]-2,3,4,5-tetrahydro-1H-1-benzazepin-1-yl]carbonyl]benzanilide hydrochloride] | – | – | 8.13 | – | 2000 pM | – | – | – |
| Cc1ccccc1CC(=O)Nc1ccc(C(=O)N2CCC(F)(F)/C(=C\C(=O)N3CCC(N(C)C)CC3)c3ccccc32)cc1 [Example 106, hydrochloride] | – | – | 8.24 | – | 1120 pM | – | – | – |
| O=C(Nc1ccc(C(=O)N2CCC(F)(F)/C(=C\C(=O)N3CCOCC3)c3ccccc32)cc1)c1ccccc1-c1ccccc1 [Example 133, (Z)-4'-[(4,4-difluoro-5-morpholinocarbonylmethylene-4,4-difluoro-2,3,4,5-tetrahydro-1H-1-benzazepin-1-yl)carbonyl]-2-phenylbenzanilide] | – | – | 8.28 | – | 363 pM | – | – | – |
| CCc1nccn1-c1ccccc1C(=O)Nc1ccc(C(=O)N2CCC(F)(F)/C(=C\C(=O)NC)c3ccccc32)cc1 [Example 104, (Z)-2-(2-ethyl-1H-imidazol-1-yl)-4'-[[4,4-difluoro-5-[(N-methylcarbamoyl)methylene]-2,3,4,5-tetrahydro-1H-1-benzazepin-1-yl]carbonyl]benzanilide] | – | – | 6.68 | – | 977 pM | excellent in V1 selectivity | markedly stronger V1 receptor antagonism than that of OPC-21268 | – |
